Series [1] relates to Prevotella intermedia (Pi). Briefly: Planktonic bacterial growth suppression (OD at 595 nm, 24 h exposure). It counts as cell-based. Particulars: concentrations ≦1500 μM. On the procedure:
(§1) Set forth in Table 1 are the species of oral bacteria which were evaluated. These species are atiologic agents and periodontal disease, gingivitis, or caries that would lend themselves to treatment with a solid-phase metal titanate compound. […] All bacteria were cultured from frozen stocks expanded from ATCC cultures; the absence of contamination was verified at each thaw via Gram stain. All bacteria were grown over 24 h to mid-log phase before inoculating experimental cultures.
(§2) One hundred μL of the initial culture was plated in 96 well plate format number of bacterial cells present in a given volume of culture was determined by correlating OD reading of bacterial culture at 595 nm to the number of cells present. […] Prior to exposing bacteria to metal-titanate compounds, appropriate dilutions of each bacterial species were made so that metal-titanate compounds are consistently exposed to 3.56E9 bacteria for all species tested. This strategy assured the same cell to titanate particle ratio, allowed repeatability, and allowed log growth phase throughout the 24 h time when bacteria were exposed to the titanates. A 24 h incubation time with titanates was chosen to maximize the exposure to the titanates without risking a culture deteriorating from overgrowth.
(§3) For metal ions alone, 5 μL of a concentrated stock solution of the respective metal salt were added to 95 μL of the bacterial cultures (n=8 per condition). […] The cultures were mixed to ensure contact between the titanates and the bacteria. MST and APT suspensions were thoroughly mixed prior to addition to ensure accurate transfer of the particles. […] Titanate-bacterial cultures were incubated for 24 h under the conditions appropriate for each type of bacterium. After 24 h, the cultures were thoroughly mixed prior to reading the OD. Control cultures for experiments included cultures of media alone (no titanates or bacteria), titanates in media (no bacteria), and bacteria alone (no titanates). […] All experiments were repeated in triplicate to assure reproducibility.
(§4) The initial and final mean and standard deviation OD readings were plotted as a function of concentration. The titanate only controls were also plotted as a baseline. Cultures were statistically compared (two-sided Student's t-tests, α=0.05) to determine significant effects of the titanates (with or without added metal) on bacterial growth.
(§5) A similar strategy was used to assess the antibacterial action of the metal ions alone, so that the relative efficacy of the titanates alone and titanate metal complexes could be compared to the metal ions alone. The delivery potential of metal ion from the titanate-metal complexes was determined by calculating the total metal mass complexed with the titanates at each titanate particle concentration.

In series [2] the test system is Actinomyces naeslundii (An). The series is described as above. It is filed as cell-based. On the procedure:
as §1, §2, §3, §4, §5

The next series deals with bacteria in Table 1. Briefly: Planktonic bacterial growth suppression, statements pooled over the species tested. It counts as cell-based, oral bacteria. On the procedure: as §1
One hundred μL of the initial culture was plated in 96 well plate format number of bacterial cells present in a given volume of culture was determined by correlating OD reading of bacterial culture at 595 nm to the number of cells present. […] Prior to exposing bacteria to metal-titanate compounds, appropriate dilutions of each bacterial species were made so that metal-titanate compounds are consistently exposed to 3.56E9 bacteria for all species tested. […]
For metal ions alone, 5 μL of a concentrated stock solution of the respective metal salt were added to 95 μL of the bacterial cultures (n=8 per condition). […] After 24 h, the cultures were thoroughly mixed prior to reading the OD. […]
The initial and final mean and standard deviation OD readings were plotted as a function of concentration. […]

The test system of another series is mammalian cells. Particulars: metal ion alone; based on previous reports; cited from earlier work.
A short description of series [3]: Aqueous solubility of the metal chloride salt. It counts as physicochemical.

For `O.O.O.[Cl][Au-]([Cl])([Cl])[Cl].[H+]` [Au(III), HAuCl4•3H2O], the “Effect of metal ion alone on Pi” value in series [1] is listed as “no observable effect”. The “An growth suppression by metal ion alone” value in series [2] (>10 μM) was “completely suppressed”. Besides, in the series with bacteria in Table 1 (metal ions alone, excepting Pt(II)), the “Relative potency among the metal ions alone” value is given as “most potent”. Besides, the “Inhibitory concentration for mammalian cells” value (“Inhibitory concentration” below) in the series with mammalian cells was 60 to 115 µM.

As to `[Cl][Pd][Cl]` [Pd(II), PdCl2], in series [2] (>1000 μM), the “An growth suppression by metal ion alone” value is given as “approximately 30%”. Also, the “Inhibitory concentration” value with mammalian cells was 100 to 300 µM.

Regarding `[Cl][Pt][Cl]` [Pt(II), PtCl2], the “Aqueous solubility of the chloride salt” value in series [3] is “limited aqueous solubility”.

As to `[Cl][Pt][Cl]` [Pt(IV), PtCl2], in series [2] (concentrations ≦750 μM), the “An growth suppression by metal ion alone” value is “not suppressed”. Further, the “Inhibitory concentration” value with mammalian cells was 25 µM.

`CC[C@H]1OC(=O)[C@H](C)[C@@H](O[C@H]2C[C@@](C)(OC)[C@@H](O)[C@H](C)O2)[C@H](C)[C@@H](O[C@@H]2O[C@H](C)C[C@H](N(C)C)[C@H]2O)[C@](C)(O)C[C@@H](C)C(=O)[C@H](C)[C@@H](O)[C@]1(C)O` [erythromycin]: the “Bacteriostatic control (Bac-Em)” value in the series on bacteria in Table 1 (bacteria with erythromycin 100 μg/mL, no titanates) is reported as “behaved as expected”.

Values taken from US8545820B2, “Use of titanium-based materials as bactericides” (Savannah River Nuclear Solutions, LLC, priority 2010, dated 2013).
